Measurements: US9730938B2, “Bruton's tyrosine kinase inhibitor combinations and uses thereof” (Pharmacyclics LLC, priority 2014, dated 2017)

Columns and labels:
[1] = test system: TMD8; assay: Combined drug treatment cell viability, CellTiter-Glo assay (Example 2); format: cell-based; details: JAK3 10 μM / MCL-1 3 μM / medium alone, 3 days
[2] = test system: OCI-LY-10; assay: as above; format: cell-based; details: JAK3 10 μM / MCL-1 3 μM / medium alone, 3 days
[3] = test system: OCI-LY-3; assay: as above; format: cell-based; details: JAK3 10 μM / MCL-1 3 μM / medium alone, 3 days
[4] = test system: HBL-1; assay: as above; format: cell-based; details: JAK3 10 μM / MCL-1 3 μM / medium alone, 3 days
[5] = test system: U2932; assay: as above; format: cell-based; details: JAK3 10 μM / MCL-1 3 μM / medium alone, 3 days
[6] = test system: SU-DHL-2; assay: as above; format: cell-based; details: JAK3 10 μM / MCL-1 3 μM / medium alone, 3 days
[7] = test system: TMD8 cells expressing PIM1-WT; assay: Cell growth of modified TMD8 cells treated with ibrutinib; details: Homo sapiens
[8] = test system: TMD8 cells expressing PIM1 L2V; assay: as above; details: Homo sapiens
[9] = test system: TMD8 cells expressing PIM1 P81S; assay: as above; details: Homo sapiens
[10] = test system: TMD8 cells expressing PIM1 S97N; assay: as above; details: Homo sapiens

## C=CC(=O)N1CCC[C@@H](n2nc(-c3ccc(Oc4ccccc4)cc3)c3c(N)ncnc32)C1 [ibrutinib, 1-((R)-3-(4-amino-3-(4-phenoxyphenyl)-1H-pyrazolo[3,4-d]pyrimidin-1-yl)piperidin-1-yl)prop-2-en-1-one]
[1]; ibrutinib 800 nM
  luminescence (CellTiter-Glo): 25963.61
[1]; ibrutinib 20000 nM
  luminescence (CellTiter-Glo): 5261.63
[1]; ibrutinib 40000 nM
  luminescence (CellTiter-Glo): 22488.80
[2]; ibrutinib 0.0512 nM
  luminescence (CellTiter-Glo): 46968.14
[2]; ibrutinib 1.28 nM
  luminescence (CellTiter-Glo): 28222.33
[2]; ibrutinib 6.4 nM
  luminescence (CellTiter-Glo): 17144.41
[2]; ibrutinib 32 nM
  luminescence (CellTiter-Glo): 14003.51
[2]; ibrutinib 160 nM
  luminescence (CellTiter-Glo): 13712.84
[2]; ibrutinib 800 nM
  luminescence (CellTiter-Glo): 14708.66
[2]; ibrutinib 20000 nM
  luminescence (CellTiter-Glo): 14261.89
[2]; ibrutinib 40000 nM
  luminescence (CellTiter-Glo): 15817.53
[3]; ibrutinib 0.0512 nM
  luminescence (CellTiter-Glo): 80095.49
[3]; ibrutinib 0.256 nM
  luminescence (CellTiter-Glo): 81910.97
[3]; ibrutinib 1.28 nM
  luminescence (CellTiter-Glo): 89730.66
[3]; ibrutinib 6.4 nM
  luminescence (CellTiter-Glo): 81709.84
[3]; ibrutinib 32 nM
  luminescence (CellTiter-Glo): 80596.96
[3]; ibrutinib 160 nM
  luminescence (CellTiter-Glo): 84190.37
[3]; ibrutinib 800 nM
  luminescence (CellTiter-Glo): 82227.41
[3]; ibrutinib 20000 nM
  luminescence (CellTiter-Glo): 69084.64
[3]; ibrutinib 40000 nM
  luminescence (CellTiter-Glo): 75112.98
[4]; ibrutinib 0.0512 nM
  luminescence (CellTiter-Glo): 46288.31
[4]; ibrutinib 0.256 nM
  luminescence (CellTiter-Glo): 42826.48
[4]; ibrutinib 1.28 nM
  luminescence (CellTiter-Glo): 43461.99
[4]; ibrutinib 6.4 nM
  luminescence (CellTiter-Glo): 38857.83
[4]; ibrutinib 32 nM
  luminescence (CellTiter-Glo): 35516.66
[4]; ibrutinib 160 nM
  luminescence (CellTiter-Glo): 35090.31
[4]; ibrutinib 800 nM
  luminescence (CellTiter-Glo): 35103.71
[4]; ibrutinib 20000 nM
  luminescence (CellTiter-Glo): 16831.87
[4]; ibrutinib 40000 nM
  luminescence (CellTiter-Glo): 36806.47
[5]; ibrutinib 0.0512 nM
  luminescence (CellTiter-Glo): 62396.81
[5]; ibrutinib 0.256 nM
  luminescence (CellTiter-Glo): 60528.12
[5]; ibrutinib 1.28 nM
  luminescence (CellTiter-Glo): 60811.50
[5]; ibrutinib 6.4 nM
  luminescence (CellTiter-Glo): 58640.71
[5]; ibrutinib 32 nM
  luminescence (CellTiter-Glo): 57009.94
[5]; ibrutinib 160 nM
  luminescence (CellTiter-Glo): 55090.45
[5]; ibrutinib 800 nM
  luminescence (CellTiter-Glo): 54579.83
[5]; ibrutinib 20000 nM
  luminescence (CellTiter-Glo): 18900.83
[5]; ibrutinib 40000 nM
  luminescence (CellTiter-Glo): 55951.28
[6]; ibrutinib 0.0512 nM
  luminescence (CellTiter-Glo): 168606.0
[6]; ibrutinib 0.256 nM
  luminescence (CellTiter-Glo): 180865.8
[6]; ibrutinib 1.28 nM
  luminescence (CellTiter-Glo): 185508.3
[6]; ibrutinib 6.4 nM
  luminescence (CellTiter-Glo): 178437.4
[6]; ibrutinib 32 nM
  luminescence (CellTiter-Glo): 180464.1
[6]; ibrutinib 160 nM
  luminescence (CellTiter-Glo): 183505.7
[6]; ibrutinib 800 nM
  luminescence (CellTiter-Glo): 181165.6
[6]; ibrutinib 20000 nM
  luminescence (CellTiter-Glo): 4650.6
[6]; ibrutinib 40000 nM
  luminescence (CellTiter-Glo): 180616.8
[7]
  EC50: 76 nM
[8]
  EC50: > 1000 nM
[9]
  EC50: > 1000 nM
[10]
  EC50: > 1000 nM
